Several values for one entry are separate records, joined by “and”; a condition that tells them apart may be missing. Equal entries are not always repeated. Toxic doses and inconclusive results are not listed. No stated cut-off is given here; in the data, active means T/C of 150% or more; inactive means T/C below 125%. Peptide text beside a SMILES is read from it.
Test system: L1210 leukemia ip in BDF1 mice, survival T/C
Assay: NCI In Vivo Anticancer Drug Screen. Data for tumor model L1210 Leukemia (intraperitoneal) in B6D2F1 (BDF1) mice
Details: endpoint: mean survival time, higher = longer survival
Procedure, shortened: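 Antitumor effect is assessed in tumor-bearing animals. Survival in the compound arm is compared with a vehicle-dosed control arm and expressed as their quotient.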

[1] = dose: 75.0 mg/kg/injection, schedule: Q01DX001 (ip), vehicle: saline
[2] = dose: 150.0 mg/kg/injection, schedule: Q01DX001 (ip), vehicle: saline
[3] = dose: 100.0 mg/kg/injection, schedule: Q01DX009 (ip), vehicle: saline with Tween-80
[4] = dose: 100.0 mg/kg/injection, schedule: Q04DX003 (ip), vehicle: saline with Tween-80
[5] = dose: 200.0 mg/kg/injection, schedule: Q01DX009 (ip), vehicle: saline with Tween-80
[6] = dose: 200.0 mg/kg/injection, schedule: Q04DX003 (ip), vehicle: saline with Tween-80
[7] = dose: 400.0 mg/kg/injection, schedule: Q01DX009 (ip), vehicle: saline with Tween-80
[8] = dose: 400.0 mg/kg/injection, schedule: Q04DX003 (ip), vehicle: saline with Tween-80
[9] = dose: 100.0 mg/kg/injection, schedule: Q01DX001 (ip), vehicle: Klucel (hydroxypropylcellulose) (HPC)
[10] = dose: 200.0 mg/kg/injection, schedule: Q01DX001 (ip), vehicle: Klucel (hydroxypropylcellulose) (HPC)
[11] = dose: 100.0 mg/kg/injection, schedule: Q04DX002 (ip), vehicle: Klucel (hydroxypropylcellulose) (HPC)
[12] = dose: 200.0 mg/kg/injection, schedule: Q04DX002 (ip), vehicle: Klucel (hydroxypropylcellulose) (HPC)
[13] = dose: 100.0 mg/kg/injection, schedule: Q01DX009 (ip), vehicle: Klucel (hydroxypropylcellulose) (HPC)
[14] = dose: 200.0 mg/kg/injection, schedule: Q01DX009 (ip), vehicle: Klucel (hydroxypropylcellulose) (HPC)
[15] = dose: 400.0 mg/kg/injection, schedule: Q01DX009 (ip), vehicle: Klucel (hydroxypropylcellulose) (HPC)
[16] = dose: 100.0 mg/kg/injection, schedule: Q04DX003 (ip), vehicle: Klucel (hydroxypropylcellulose) (HPC)
[17] = dose: 200.0 mg/kg/injection, schedule: Q04DX003 (ip), vehicle: Klucel (hydroxypropylcellulose) (HPC)
[18] = dose: 400.0 mg/kg/injection, schedule: Q04DX003 (ip), vehicle: Klucel (hydroxypropylcellulose) (HPC)
[19] = dose: 400.0 mg/kg/injection, schedule: Q04DX002 (ip), vehicle: Klucel (hydroxypropylcellulose) (HPC)

Measured: T/C

CNC(=O)ON=C(C)C
inactive: [1] 102 % of control | dose: 75.0 mg/kg/injection, schedule: Q01DX009 (ip), vehicle: saline 99 % of control | [2] 102 % of control | dose: 150.0 mg/kg/injection, schedule: Q01DX009 (ip), vehicle: saline 94 % of control | dose: 300.0 mg/kg/injection, schedule: Q01DX001 (ip), vehicle: saline 109 % of control | dose: 300.0 mg/kg/injection, schedule: Q01DX009 (ip), vehicle: saline 108 % of control

CCCCCCC(=O)C1C(c2ccc(N(C)C)cc2)CC(=O)C(CCCCC)C1c1ccc(N(C)C)cc1 (stereo not given)
inactive: [3] 86 % of control | [4] 89 % of control | [5] 95 % of control | [6] 90 % of control | [7] 95 % of control | [8] 92 % of control

C=Cc1cnc(NC(C)=O)c(C#N)n1
inactive: [9] 103 % of control | [10] 100 % of control

CCCCCCCCCC1=NN(c2cccc(S(=O)(=O)N(C)c3ccccc3)c2)C(=O)C1
inactive: dose: 100.0 mg/kg/injection, schedule: Q04DX003 (ip), vehicle: saline 94 % of control | dose: 200.0 mg/kg/injection, schedule: Q04DX003 (ip), vehicle: saline 94 % of control | dose: 400.0 mg/kg/injection, schedule: Q04DX003 (ip), vehicle: saline 91 % of control

Cc1cccc(Cl)c1NC(=O)c1c(Cl)c(Cl)c(Cl)c(Cl)c1C(=O)O
inactive: [11] 110 % of control | [12] 104 % of control

Cc1c(C)c(Br)c(C)c(-c2c(C)c(C)c(C)c(Br)c2C)c1C
inactive: dose: 50.0 mg/kg/injection, schedule: Q01DX009 (ip), vehicle: Klucel (hydroxypropylcellulose) (HPC) 99 % of control | [13] 97 % of control | [14] 94 % of control | [15] 90 % of control

C=CCN(CC=C)/N=N\c1nc[nH]c1C(=O)OC
inactive: dose: 100.0 mg/kg/injection, schedule: Q01DX001 (ip), vehicle: saline with Tween-80 100 % of control | [3] 109 % of control | [4] 98 % of control | dose: 200.0 mg/kg/injection, schedule: Q01DX001 (ip), vehicle: saline with Tween-80 102 % of control | [5] 95 % of control | [6] 98 % of control | dose: 400.0 mg/kg/injection, schedule: Q01DX001 (ip), vehicle: saline with Tween-80 98 % of control | [7] 93 % of control | [8] 96 % of control

COc1ccc(C=O)c(Br)c1O
inactive: [13] 103 % of control | [16] 104 % of control | [14] 97 % of control | [17] 103 % of control | [15] 97 % of control | [18] 101 % of control

O=C(Oc1ccccc1C(=O)O)c1ccccc1O
inactive: dose: 50.0 mg/kg/injection, schedule: Q04DX003 (ip), vehicle: Klucel (hydroxypropylcellulose) (HPC) 90 % of control | [16] 97 % of control and 102 % of control | [17] 114 % of control | [18] 96 % of control

O=[N+]([O-])c1ccc(NCc2ccccc2)nc1
inactive: dose: 100.0 mg/kg/injection, schedule: Q04DX002 (ip), vehicle: saline with Tween-80 91 % of control | dose: 111.0 mg/kg/injection, schedule: Q01DX Z (ip), vehicle: carboxymethylcellulose (CMC) 111 % of control | dose: 166.7 mg/kg/injection, schedule: Q01DX Z (ip), vehicle: carboxymethylcellulose (CMC) 98 % of control | dose: 200.0 mg/kg/injection, schedule: Q04DX002 (ip), vehicle: saline with Tween-80 97 % of control | dose: 250.0 mg/kg/injection, schedule: Q01DX Z (ip), vehicle: carboxymethylcellulose (CMC) 101 % of control | dose: 375.0 mg/kg/injection, schedule: Q01DX Z (ip), vehicle: carboxymethylcellulose (CMC) 100 % of control | dose: 400.0 mg/kg/injection, schedule: Q04DX002 (ip), vehicle: saline with Tween-80 103 % of control

Cc1cc(C)n(/N=C/c2ccccc2)c(=O)c1C#N
inactive: dose: 100.0 mg/kg/injection, schedule: Q01DX001 (ip), vehicle: carboxymethylcellulose (CMC) 91 % of control | dose: 200.0 mg/kg/injection, schedule: Q01DX001 (ip), vehicle: carboxymethylcellulose (CMC) 91 % of control | dose: 400.0 mg/kg/injection, schedule: Q01DX001 (ip), vehicle: carboxymethylcellulose (CMC) 91 % of control

CC[P+](c1ccccc1)(c1ccccc1)c1ccccc1
inactive: dose: 0.62 mg/kg/injection, schedule: Q01DX009 (ip), vehicle: saline 100 % of control | dose: 0.62 mg/kg/injection, schedule: Q04DX003 (ip), vehicle: saline 100 % of control | dose: 1.25 mg/kg/injection, schedule: Q01DX009 (ip), vehicle: saline 100 % of control | dose: 1.25 mg/kg/injection, schedule: Q04DX003 (ip), vehicle: saline 97 % of control | dose: 2.5 mg/kg/injection, schedule: Q01DX009 (ip), vehicle: saline 100 % of control | dose: 2.5 mg/kg/injection, schedule: Q04DX003 (ip), vehicle: saline 97 % of control

CCN(CC)CCCNC(c1ccc(Cl)cc1)C(Cl)(Cl)Cl (stereo not given)
inactive: [1] 88 % of control

O=C(O)c1ccc2[nH]c(=O)c(=O)[nH]c2c1
inactive: [16] 96 % of control | [17] 101 % of control | [18] 102 % of control

CC(=O)Nc1ccccc1N
inactive: dose: 100.0 mg/kg/injection, schedule: Q01DX009 (ip), vehicle: saline 117 % of control | [11] 92 % of control | dose: 200.0 mg/kg/injection, schedule: Q01DX009 (ip), vehicle: saline 113 % of control | [12] 113 % of control | dose: 265.0 mg/kg/injection, schedule: Q01DX009 (ip), vehicle: saline 114 % of control | [19] 103 % of control

CN1CN(c2ccccc2)C2(CCN(Cc3nc4ccc(Cl)cc4[nH]3)CC2)C1=O
inactive: [9] 101 % of control | [10] 93 % of control | dose: 400.0 mg/kg/injection, schedule: Q01DX001 (ip), vehicle: Klucel (hydroxypropylcellulose) (HPC) 91 % of control

CCC(C)C(C)CO (stereo not given)
inactive: dose: 50.0 mg/kg/injection, schedule: Q01DX001 (ip), vehicle: saline 108 % of control | dose: 100.0 mg/kg/injection, schedule: Q01DX001 (ip), vehicle: saline 100 % of control | dose: 200.0 mg/kg/injection, schedule: Q01DX001 (ip), vehicle: saline 88 % of control

NC(=O)C(CCCN=C(N)N)NC(=O)CNC(=O)C(N)CO (stereo not drawn) (H-Ser-Gly-Arg-NH2; configuration not given here)
inactive: dose: 25.0 mg/kg/injection, schedule: Q04DX002 (ip), vehicle: Klucel (hydroxypropylcellulose) (HPC) 103 % of control | dose: 50.0 mg/kg/injection, schedule: Q04DX002 (ip), vehicle: Klucel (hydroxypropylcellulose) (HPC) 106 % of control | [11] 100 % of control

O=C1C=C(N2CCCC2)CCC1
inactive: [1] 107 % of control | [2] 109 % of control

CN(C)C1CCC2C3CC=C4CC(OC=O)CCC4(C)C3CCC21C (stereo not given)
inactive: dose: 9.38 mg/kg/injection, schedule: Q01DX001 (ip), vehicle: other 101 % of control | dose: 18.75 mg/kg/injection, schedule: Q01DX001 (ip), vehicle: other 101 % of control | dose: 37.5 mg/kg/injection, schedule: Q01DX001 (ip), vehicle: other 100 % of control

Clc1cc(Cc2ccc(N=C/C=C/c3ccccc3)c(Cl)c2)ccc1N=C/C=C\c1ccccc1
inactive: [11] 100 % of control | [12] 93 % of control | [19] 86 % of control
